Data reported in the supplement of paper PMC4862054.

Tests used:
Experiment in all cases: normalised viability (% of control), CellTiter-Blue; higher = more viable cells (about 100 = DMSO control)
HDQ-P1 [1] = details: 1 nM; incubation time: 72 h
Experimental: (§1)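 DSRT, CellTiter-Blue viability, 72 h incubation. Signal is normalised to DMSO and benzethonium chloride controls. Value is the normalised response at dose 3.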

CAL-85-1 [2] = details: 1 nM; incubation time: 72 h
Experimental: as §1

Hs578T [3] = details: 10 nM; incubation time: 72 h
Experimental: as §1

CAL-148 [4] = details: 1 nM; incubation time: 72 h
Experimental: as §1

MDA-MB-468 [5] = details: 10 nM; incubation time: 72 h
Experimental: as §1

CAL-120 [6] = details: 10 nM; incubation time: 72 h
Experimental: as §1

MFM-223 [7] = details: 10 nM; incubation time: 72 h
Experimental: as §1

CAL-51 = details: 1 nM; incubation time: 72 h
Experimental: as §1

SK-BR-3 [8] = details: 10 nM; incubation time: 72 h
Experimental: as §1

DU-4475 = details: 1 nM; incubation time: 72 h
Experimental: as §1

HCC1599 [9] = details: 10 nM; incubation time: 72 h
Experimental: as §1

HCC1937 = details: 10 nM; incubation time: 72 h
Experimental: as §1

BT-474 = details: 10 nM; incubation time: 72 h
Experimental: as §1

MDA-MB-231 [10] = details: 10 nM; incubation time: 72 h
Experimental: as §1

HCC1143 [11] = details: 10 nM; incubation time: 72 h
Experimental: as §1

MDA-MB-436 [12] = details: 10 nM; incubation time: 72 h
Experimental: as §1

MDA-MB-453 = details: 1 nM; incubation time: 72 h
Experimental: as §1

BT-549 = details: 10 nM; incubation time: 72 h
Experimental: as §1

HDQ-P1 [13] = details: incubation time: 72 h
Outline: (§2)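 Seeded at 20 µl suspension per well onto compound-loaded 384-well plates, breast cancer cell lines were incubated 72 h. CellTiter-Blue fluorescence at 560/590 nm was then read, with each plate normalised to vehicle (100) and a positive kill control (0). Normalised viability is reported at a single listed concentration of the series.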

CAL-85-1 [14] = details: incubation time: 72 h
Outline: as §2

Hs578T [15] = details: incubation time: 72 h
Outline: as §2

CAL-148 [16] = details: incubation time: 72 h
Outline: as §2

MDA-MB-468 [17] = details: incubation time: 72 h
Outline: as §2

CAL-120 [18] = details: incubation time: 72 h
Outline: as §2

MFM-223 [19] = details: incubation time: 72 h
Outline: as §2

SK-BR-3 [20] = details: incubation time: 72 h
Outline: as §2

HCC1599 [21] = details: incubation time: 72 h
Outline: as §2

MDA-MB-231 [22] = details: incubation time: 72 h
Outline: as §2

HCC1143 [23] = details: incubation time: 72 h
Outline: as §2

MDA-MB-436 [24] = details: incubation time: 72 h
Outline: as §2

CC(=O)O[C@H]1C(=O)[C@@]2(C)[C@H]([C@H](OC(=O)c3ccccc3)[C@]3(O)C[C@H](OC(=O)[C@H](O)[C@@H](NC(=O)c4ccccc4)c4ccccc4)C(C)=C1C3(C)C)[C@]1(OC(C)=O)CO[C@@H]1C[C@@H]2O [Paclitaxel]
Details | normalised viability [%]
BT-474 | 54.3
BT-549 | 31.9
CAL-51 | 91.8
CAL-85-1 [2] | 103
CAL-120 [6] | 36.9
CAL-148 [4] | 103
DU-4475 | 97.6
HCC1143 [11] | 54.6
HCC1599 [9] | 104
HCC1937 | 36.4
HDQ-P1 [1] | 60.8
Hs578T [3] | 26
MDA-MB-231 [10] | 35.7
MDA-MB-436 [12] | 52.2
MDA-MB-453 | 107
MDA-MB-468 [5] | 52.1
MFM-223 [7] | 55.8
SK-BR-3 [8] | 25.9

normalised viability [%]
Details | 0.3 nM | 1 nM | 3 nM | 10 nM | 100 nM | 1000 nM
CAL-85-1 [14] | 99.5 | – | 76.9 | 62.2 | – | –
CAL-120 [18] | – | 89.7 | – | – | 23.6 | 22.7
CAL-148 [16] | 106 | – | 72.6 | 51.2 | – | –
HCC1143 [23] | – | 104 | – | – | 34.5 | 32.5
HCC1599 [21] | – | 113 | – | – | 86.7 | 69.6
HDQ-P1 [13] | 88.2 | – | 55.6 | 46.1 | – | –
Hs578T [15] | – | 110 | – | – | 16.4 | 11.1
MDA-MB-231 [22] | – | 79.2 | – | – | 19.9 | 22.1
MDA-MB-436 [24] | – | 100 | – | – | 50.5 | 42.2
MDA-MB-468 [17] | – | 93.5 | – | – | 47.2 | 49.4
MFM-223 [19] | – | 98.2 | – | – | 45.1 | 51.7
SK-BR-3 [20] | – | 84.8 | – | – | 13.9 | 12.9
